Source: publication PMC5358776, “Insight into the mechanism of action of temporin-SHa, a new broad-spectrum antiparasitic and antibacterial agent” (PLoS ONE, 2017)
Where two headings read alike, the source gives them in different places. Where no end group is shown, it is not given here.

Key:
C. albicans ATCC 90028 = conditions: YPD medium; mean of 3 independent experiments in triplicate
Method: (§1) Candida albicans ATCC 90028, Candida parapsilosis ATCC 22019 (ATCC), and Saccharomyces cerevisiae (laboratory collection) were cultured in yeast peptone dextrose (YPD, Sigma-Aldrich) medium at 30°C.
(§2) The minimal inhibitory concentration (MIC) was determined as the mean value of three independent experiments, each performed in triplicate with negative (H2O) and positive (0.7% formaldehyde) controls.

[1] = test system: C. parapsilosis ATCC 22019; conditions: YPD medium; mean of 3 independent experiments in triplicate
Method: as §1, §2

T. brucei gambiense = conditions: 96 h incubation, cell counting; mean of 3 independent experiments in duplicate
Method: (§3) Antiparasitic activity was evaluated against trypanosomatids, such as Leishmania and Trypanosoma. Antileishmanial activity was determined either by a luminescence-based assay (L. infantum, L. major and L. braziliensis) or by cell counting (FACSCalibur flow cytometer, Becton-Dickinson Biosciences, Woburn, MA, USA) after staining with propidium iodide (L. tropica and L. amazonensis), as previously described [23], using promastigotes or axenic amastigotes (1.25 x 10^6 parasites/ml) in mid-log phase and 5-fold serial dilutions of synthetic temporin (50–3.1 μM, final concentrations). Antitrypanosomal activity against T. brucei gambiense and T. cruzi was assessed by cell counting, similar to the L. tropica and L. amazonensis analysis, after incubation of the parasites (96 h for T. brucei gambiense and 120 h for T. cruzi) with the synthetic temporin, as previously described [23]. The half maximal inhibitory concentration (IC50) value was determined with GraphPad Prism 6.0 software (GraphPad Software, La Jolla, CA, USA) using a sigmoidal dose response (variable slope) curve fitting equation. The results are expressed as the means of three independent experiments performed in triplicate (luminescence-based assays) or in duplicate (cell counting-based assays).

E. coli ML-35p [2] = conditions: MH broth, 10^6 cfu/ml; mean of 3 independent experiments in triplicate
Method: (§4) Listeria ivanovii Li4pVS2 (kindly provided by Jean-Marc Berjeaud, Université de Poitiers, France), and Streptococcus pyogenes ATCC 19615 (ATCC) were cultured in brain heart infusion (BHI, Sigma-Aldrich) medium under the same conditions.
(§5) Activity against bacteria and yeasts was assessed with a liquid growth inhibition assay performed in 96-well microtitration plates, according to a previously described protocol [14], using mid-logarithmic phase cultures diluted in Mueller-Hinton (MH, Dominique Dutscher) broth (LB broth for E. faecalis strain and YPD medium for yeasts/fungi) to an A630 value of 0.01 (10^6 cfu/ml) and 2-fold serial dilutions of synthetic temporin (200–1 μM, final concentrations). The minimal inhibitory concentration (MIC) was determined as the mean value of three independent experiments, each performed in triplicate with negative (H2O) and positive (0.7% formaldehyde) controls.

S. pyogenes ATCC 19615 = conditions: MH broth, 10^6 cfu/ml; mean of 3 independent experiments in triplicate
Method: as §4, §5

[3] = test system: L. infantum promastigotes
Method: (§6) L. infantum axenic amastigotes were differentiated from promastigotes in MAA medium (supplemented with 20% FCS) and were grown at 37°C in 5% CO2 [23].
(§7) Antiparasitic activity was evaluated against trypanosomatids, such as Leishmania and Trypanosoma. Antileishmanial activity was determined either by a luminescence-based assay (L. infantum, L. major and L. braziliensis) or by cell counting (FACSCalibur flow cytometer, Becton-Dickinson Biosciences, Woburn, MA, USA) after staining with propidium iodide (L. tropica and L. amazonensis), as previously described [23], using promastigotes or axenic amastigotes (1.25 x 10^6 parasites/ml) in mid-log phase and 5-fold serial dilutions of synthetic temporin (50–3.1 μM, final concentrations). […] The half maximal inhibitory concentration (IC50) value was determined with GraphPad Prism 6.0 software (GraphPad Software, La Jolla, CA, USA) using a sigmoidal dose response (variable slope) curve fitting equation. The results are expressed as the means of three independent experiments performed in triplicate (luminescence-based assays) or in duplicate (cell counting-based assays).

E. coli ATCC 25922 = conditions: MH broth, 10^6 cfu/ml; mean of 3 independent experiments in triplicate
Method: as §4, §5

Human THP-1 monocytes = conditions: MTT, 72 h, 37°C, 1–60 μM; mean of 3 independent experiments in triplicate
L. major promastigotes = conditions: mean of 3 independent experiments in triplicate
Method: as §6, §7

Human fibroblasts (HFF) = conditions: MTT, 72 h, 37°C, 1–100 μM; mean of 3 independent experiments in triplicate
Yeasts/fungi = conditions: 3 yeast/fungal strains of Table 3
Rat erythrocytes = conditions: 1 h, 37°C, PBS, 2 x 10^7 cells; mean of 3 independent experiments in triplicate
Method: (§8) Hemolytic assays were also performed using erythrocytes obtained from fresh blood samples of Wistar male rats (Charles River Laboratories, France). The hemolytic activity was measured by incubating the peptide (1–200 μM, final concentrations) with erythrocytes (2 x 10^7 cells) in PBS (100 μl) for 1 h at 37°C, as previously described [23]. A parallel incubation in the presence of 0.1% (v/v) Triton-X100 was carried out to determine the absorbance associated with 100% hemolysis. […] For THP-1-derived macrophages, viability was determined by Trypan blue staining after incubation with peptide (1–100 μM, final concentrations). LC50 (average concentration of the peptide producing 50% cell lysis) and IC50 values were determined with GraphPad Prism 6.0 software and correspond to the mean obtained from three independent experiments carried out with three (erythrocytes, THP-1 monocytes, HepG2 and HFF cells) or six replicates (THP-1-derived macrophages).
(§9) IC50 or LC50 values were determined for the different human cells mentioned above in the cytotoxicity assays.

[4] = test system: L. infantum promastigotes; conditions: 3 μM, at 180 min, HBSS
S. aureus ATCC 25923 = conditions: MH broth, 10^6 cfu/ml; mean of 3 independent experiments in triplicate
Method: as §5

[5] = test system: L. amazonensis promastigotes; conditions: cell counting; mean of 3 independent experiments in duplicate
Method: as §6, §7

E. coli ML-35p [6] = assay: Time-kill assay; format: cell-based, Escherichia coli; conditions: 120-min exposure, 12 μM, PBS, 10^6 cfu/ml
Method: Time-kill assays were performed on bacteria and Leishmania infantum promastigotes. For bacteria (E. coli ML-35p and S. aureus ST1065, 10^6 cfu/ml), assays were performed as previously described, with final temporin concentrations of 6 and 12 μM. For parasite time-kill assays, Leishmania infantum promastigotes harvested in exponential phase were washed twice (1,000 x g, 10 min) with Hank's balanced salt solution (HBSS) supplemented with 20 mM glucose and then suspended in the same buffer to a density of 2.5 x 10^6 cells/ml. This suspension (800 μl) was incubated with 200 μl of a 5X temporin solution, and parasitic death was evaluated at different times by counting parasites (FACSCalibur) after staining with 1 μg/ml propidium iodide (Molecular Probes). Negative controls were assayed without peptides. Three experiments were carried out in triplicate for bacteria or in duplicate for parasites.

S. aureus ATCC BAA-44 = conditions: multidrug-resistant strain; MH broth, 10^6 cfu/ml; mean of 3 independent experiments in triplicate
Gram-positive bacteria = conditions: 7 Gram-positive strains of Table 3
Human HepG2 = conditions: MTT, 72 h, 37°C, 50–600 μM; mean of 3 independent experiments in triplicate
Human erythrocytes = assay: Hemolytic assay; conditions: 1 h, 37°C, PBS, 2 x 10^7 cells; mean of 3 independent experiments in triplicate
Method: as §8, §9

[7] = test system: L. infantum (intramacrophagic) amastigotes in THP-1-derived macrophages; conditions: infected THP-1-derived macrophages, 4 days; mean of 2 experiments with six replicates
Method: Leishmania infantum (strain MHOM/MA/67/ITMAP-263), Leishmania major (strain MHOM/SU/73/5-ASKH), Leishmania tropica (strain MHOM/SU/74/SAFK27), Leishmania amazonensis (strain MHOM/BR/73/M2269), and Leishmania braziliensis (strain MHOM/BR/75/M2904) promastigotes (kindly provided by Francine Pratlong, Centre National de Référence des Leishmania, Montpellier, France) were cultured at 26°C in SDM-79 medium supplemented with 10% fetal calf serum (FCS, Gibco) [23]. […] L. infantum-infected human macrophages were obtained from human THP-1 monocytes, as previously described [23, 78].
Intramacrophagic leishmanicidal activity of the peptides was assessed by incubating L. infantum-infected human macrophages with 2-fold serial dilutions of peptide (50–2.5 μM, final concentrations) for 4 days, as previously described [23]. THP-1-derived macrophages were infected with promastigotes from late log phase at a density of 5 x 10^5 cells/well (ratio 10:1) in RPMI medium for 24 h at 37°C with 5% CO2. […] The results are expressed as the means of two experiments performed with six replicates.

[8] = test system: promastigotes of several species of Leishmania; conditions: read-out: IC50 (range over Leishmania species); promastigotes of L. infantum, L. major, L. amazonensis, L. braziliensis
Method: as §3

T. cruzi epimastigotes = conditions: 120 h incubation, cell counting; mean of 3 independent experiments in duplicate
Method: as §3

A. baumannii ATCC 19606 = conditions: MH broth, 10^6 cfu/ml; mean of 3 independent experiments in triplicate
Method: as §5

Gram-negative bacteria = conditions: 6 Gram-negative strains of Table 3
[9] = test system: Human THP-1-derived macrophages; assay: Cytotoxicity, Trypan blue staining; conditions: 1–100 μM, mean of 3 independent experiments, six replicates
Method: as §8, §9

L. ivanovii = conditions: MH broth, 10^6 cfu/ml; mean of 3 independent experiments in triplicate
Method: as §4, §5

K. pneumoniae ATCC 13883 = conditions: MH broth, 10^6 cfu/ml; mean of 3 independent experiments in triplicate
Method: as §5

[10] = test system: L. infantum (axenic) amastigotes; conditions: axenic amastigotes
Method: as §6, §7

E. faecalis ATCC 29212 = conditions: LB broth, 10^6 cfu/ml; mean of 3 independent experiments in triplicate
Method: as §4, §5

[11] = test system: S. enterica (serotype Enteritidis); conditions: MH broth, 10^6 cfu/ml; mean of 3 independent experiments in triplicate
Method: as §5

[12] = test system: L. infantum (antimony resistant) promastigotes; conditions: antimony-resistant parasites
Method: as §3

P. aeruginosa ATCC 27853 = conditions: MH broth, 10^6 cfu/ml; mean of 3 independent experiments in triplicate
Method: as §4, §5

S. cerevisiae = conditions: YPD medium; mean of 3 independent experiments in triplicate
Method: as §1, §2

[13] = test system: L. braziliensis promastigotes; conditions: mean of 3 independent experiments in triplicate
Method: as §6, §7

S. aureus ATCC 43300 = conditions: strain resistant to methicillin and oxacillin; MH broth, 10^6 cfu/ml; mean of 3 independent experiments in triplicate
Method: as §4, §5

S. aureus ST1065 = conditions: MH broth, 10^6 cfu/ml; mean of 3 independent experiments in triplicate
Method: as §5

FLSGIVGMLGKLF-NH2 [SHa, temporin-SHa]
MIC (C. albicans ATCC 90028): 25 µM
MIC [1]: 100 µM
IC50 (T. brucei gambiense): 14 µM
MIC (E. coli ML-35p [2]): 10 µM
MIC (S. pyogenes ATCC 19615): 6 µM
IC50 ([3]; medium with serum, mean of 3 independent experiments in triplicate): 18 µM
IC50 ([3]; serum-free medium (values in parentheses)): 8 µM
MIC (E. coli ATCC 25922): 10 µM
IC50 (Human THP-1 monocytes): > 60 µM
IC50 (L. major promastigotes): 13 µM
IC50 (Human fibroblasts (HFF)): > 100 µM
MICGM (geometric mean of the MIC values) (Yeasts/fungi): 31.1 µM
LC50 (Rat erythrocytes): 25 µM
killing [4]: 38%
MIC (S. aureus ATCC 25923): 3 µM
IC50 [5]: 13 µM
killing (E. coli ML-35p [6]): approximately 93%
MIC (S. aureus ATCC BAA-44): 6 µM
MICGM (geometric mean of the MIC values) (Gram-positive bacteria): 6 µM
IC50 (Human HepG2): 560 µM
LC50 (Human erythrocytes): 25 µM
IC50 [7]: 9 µM
IC50 [8]: 7 to 18 µM
IC50 (T. cruzi epimastigotes): 17 µM
MIC (A. baumannii ATCC 19606): 6 µM
MICGM (geometric mean of the MIC values) (Gram-negative bacteria): 14.4 µM
LC50 [9]: 60 µM
MIC (L. ivanovii): 6 µM
MIC (K. pneumoniae ATCC 13883): 12 µM
IC50 [10]: 20 µM
MIC (E. faecalis ATCC 29212): 12 µM
MIC [11]: 25 µM
IC50 [12]: 14 µM
MIC (P. aeruginosa ATCC 27853): 50 µM
MIC (S. cerevisiae): 12 µM
IC50 [13]: 7 µM
MIC (S. aureus ATCC 43300): 6 µM
MIC (S. aureus ST1065): 6 µM
